# “Also recorded” adds a separate entry of the source.
# Assays:
# HDAC6 = HDAC6 (Homo sapiens (Human), UniProt Q9UBN7); experiment: HDACs 1-11 enzymatic inhibition by BPS Bioscience
# Experimental: (§5) HDAC assay was performed according to standard Protocols (Fluorgenic HDACs 1-11 assay kit, BPS Bioscience™). […] After 0.5 h, assay developer was added to the samples and the absorbance was read at fluorogenic wavelength. The relative inhibition to HDACs 1, 2, 3, 4, 5, 6, 7, 8, 9, and 11 activities was determined in each sample. […] All of the compounds were dissolved in DMSO. The serial dilution of the compounds was first performed in 100% DMSO with the highest concentration at 1 mM. Each intermediate compound dilution (in 100% DMSO) would then get directly diluted 10× fold into assay buffer for an intermediate dilution of 10% DMSO in HDAC assay buffer and 5 μl of the dilution was added to a 50 μl reaction so that the final concentration of DMSO is 1% in all of the reactions. The enzymatic reactions for the HDAC enzymes were conducted in duplicate at 37° C. for 30 minutes in a 50 μl mixture containing HDAC assay buffer, 5 μg BSA, an HDAC substrate, a HDAC enzyme and a test compound. After enzymatic reactions, 50 μl of 2×HDAC Developer was added to each well for the HDAC enzymes and the plate was incubated at room temperature for an additional 15 minutes. Fluorescence intensity was measured at an excitation of 360 nm and an emission of 460 nm using a Tecan Infinite M1000 microplate reader. HDAC activity assays were performed in duplicate at each concentration. The fluorescent intensity data were analyzed using the computer software, Graphpad Prism. In the absence of the compound, the fluorescent intensity (Ft) in each data set was defined as 100% activity. In the absence of HDAC, the fluorescent intensity (Fb) in each data set was defined as 0% activity. The percent activity in the presence of each compound was calculated according to the following equation: % activity=(F−Fb)/(Ft−Fb), where F=the fluorescent intensity in the presence of the compound. […] The IC50 value was determined by the concentration causing a half-maximal percent activity.
# HDAC4 = HDAC4 (Homo sapiens (Human), UniProt P56524); experiment: HDACs 1-11 enzymatic inhibition by BPS Bioscience
# Experimental: as §5
# [1] = system: histone H3 acetylation (AcH3) in SW48 cells; experiment: Western blot of histone H3 acetylation; type: cell-based, human; conditions: SW48, 1.0 μM, 2-72 h
# Procedure, shortened: (§1)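 MDA-MB-231 and SW48 cells in L-15 with 10% FCS were treated at indicated doses for 24 h or over a time course. RIPA lysates were immunoblotted for acetylated histone H3 with β-actin as loading control, using ECL detection.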
# [2] = system: histone H3 acetylation (AcH3) in MDA-MB-231 cells; experiment: Western blot of histone H3 acetylation; type: cell-based, human; conditions: MDA-MB-231, 1.0 μM
# Procedure, shortened: as §1
# HDAC8 = HDAC8 (Homo sapiens (Human), UniProt Q9BY41); experiment: HDACs 1-11 enzymatic inhibition by BPS Bioscience
# Sequence of HDAC8 (Q9BY41 whole entry): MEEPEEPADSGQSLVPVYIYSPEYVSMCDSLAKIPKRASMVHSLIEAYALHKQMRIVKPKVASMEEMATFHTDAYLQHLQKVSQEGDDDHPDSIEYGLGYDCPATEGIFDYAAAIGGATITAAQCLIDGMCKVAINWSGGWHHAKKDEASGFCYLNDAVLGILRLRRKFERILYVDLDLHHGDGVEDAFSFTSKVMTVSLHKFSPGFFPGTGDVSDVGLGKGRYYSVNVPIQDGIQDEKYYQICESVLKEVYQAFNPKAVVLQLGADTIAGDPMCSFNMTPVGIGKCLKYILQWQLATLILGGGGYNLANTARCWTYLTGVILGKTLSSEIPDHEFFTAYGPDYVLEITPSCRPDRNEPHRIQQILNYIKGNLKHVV
# Experimental: as §5
# HDAC9 = HDAC9 (Homo sapiens (Human), UniProt Q9UKV0); experiment: HDACs 1-11 enzymatic inhibition by BPS Bioscience
# Sequence of HDAC9 (Q9UKV0 whole entry): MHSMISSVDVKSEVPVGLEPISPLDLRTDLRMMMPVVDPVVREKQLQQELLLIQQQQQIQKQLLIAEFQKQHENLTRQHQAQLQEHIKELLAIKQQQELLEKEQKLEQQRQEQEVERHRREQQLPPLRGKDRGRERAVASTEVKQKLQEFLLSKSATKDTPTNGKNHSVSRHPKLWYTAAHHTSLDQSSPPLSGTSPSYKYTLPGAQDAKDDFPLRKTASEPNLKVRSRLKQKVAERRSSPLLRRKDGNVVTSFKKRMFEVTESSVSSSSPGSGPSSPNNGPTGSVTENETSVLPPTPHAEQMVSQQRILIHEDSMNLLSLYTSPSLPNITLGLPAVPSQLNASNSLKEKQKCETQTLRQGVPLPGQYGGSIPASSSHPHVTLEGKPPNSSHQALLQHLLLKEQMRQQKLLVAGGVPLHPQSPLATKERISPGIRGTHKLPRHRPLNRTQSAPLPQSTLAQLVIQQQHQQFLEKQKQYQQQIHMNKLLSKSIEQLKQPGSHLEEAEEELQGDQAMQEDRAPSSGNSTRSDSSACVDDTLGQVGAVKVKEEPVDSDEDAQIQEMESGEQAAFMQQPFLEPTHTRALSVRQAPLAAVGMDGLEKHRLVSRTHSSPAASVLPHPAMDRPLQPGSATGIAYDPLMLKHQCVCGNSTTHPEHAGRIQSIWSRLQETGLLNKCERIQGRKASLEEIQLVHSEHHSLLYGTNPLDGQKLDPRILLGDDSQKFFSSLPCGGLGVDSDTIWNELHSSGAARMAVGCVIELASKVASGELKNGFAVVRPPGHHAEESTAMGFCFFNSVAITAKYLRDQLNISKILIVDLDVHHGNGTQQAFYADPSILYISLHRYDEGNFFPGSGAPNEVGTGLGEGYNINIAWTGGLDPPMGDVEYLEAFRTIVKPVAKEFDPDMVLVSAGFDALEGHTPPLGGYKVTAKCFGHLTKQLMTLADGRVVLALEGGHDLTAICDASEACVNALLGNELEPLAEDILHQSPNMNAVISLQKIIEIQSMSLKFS
# Experimental: as §5
# SW48 cells = experiment: Cell proliferation and morphology by phase-contrast light microscopy; type: cell-based, human; conditions: SW48, 3.125 μM, 72 h
# Excerpt: (§2) (FIG. 3A) MDA-MB-231 cells, (FIG. 3B) SW48 cells, (FIG. 3C) M10 cells.
# M10 cells = experiment: as above; type: cell-based, human; conditions: M10, 12.5 μM
# Excerpt: as §2
# MDA-MB-231 cells = experiment: as above; type: cell-based, human; conditions: MDA-MB-231, 12.5 μM, 72 h
# Excerpt: as §2
# HDAC5 = HDAC5 (Homo sapiens (Human), UniProt Q9UQL6); experiment: HDACs 1-11 enzymatic inhibition by BPS Bioscience
# Experimental: as §5
# MDA-MB-231 = experiment: In vitro cytotoxicity MTT assay; type: cell-based, human; conditions: Homo sapiens, MDA-MB-231, 72 h, IC50 ± SD
# Procedure, shortened: (§3)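 After plating MDA-MB-453, NCI-N87 and SW48 at 2.4×10^4 and MDA-MB-231 at 6×10^3 in 96 wells, cultures were incubated for 72 h. Cellular viability was then quantified with an MTT assay.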
# M10 = experiment: In vitro cytotoxicity MTT assay; type: cell-based, human; conditions: Homo sapiens, M10, 72 h, IC50 ± SD
# Procedure, shortened: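 MTT read-out of cell viability at 72 h. Breast line MDA-MB-231 was plated at 6×10^3 per well, while MDA-MB-453, gastric NCI-N87 and colorectal SW48 were plated at 2.4×10^4.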
# SW48 = experiment: In vitro cytotoxicity MTT assay; type: cell-based, human; conditions: Homo sapiens, SW48, 72 h, IC50 ± SD
# Procedure, shortened: as §3
# MDA-MB-453 = experiment: In vitro cytotoxicity MTT assay; type: cell-based, human; conditions: Homo sapiens, MDA-MB-453, 72 h, IC50 ± SD
# Procedure, shortened: as §3
# HDAC11 = HDAC11 (Homo sapiens (Human), UniProt Q96DB2); experiment: HDACs 1-11 enzymatic inhibition by BPS Bioscience
# Sequence of HDAC11 (Q96DB2 whole entry): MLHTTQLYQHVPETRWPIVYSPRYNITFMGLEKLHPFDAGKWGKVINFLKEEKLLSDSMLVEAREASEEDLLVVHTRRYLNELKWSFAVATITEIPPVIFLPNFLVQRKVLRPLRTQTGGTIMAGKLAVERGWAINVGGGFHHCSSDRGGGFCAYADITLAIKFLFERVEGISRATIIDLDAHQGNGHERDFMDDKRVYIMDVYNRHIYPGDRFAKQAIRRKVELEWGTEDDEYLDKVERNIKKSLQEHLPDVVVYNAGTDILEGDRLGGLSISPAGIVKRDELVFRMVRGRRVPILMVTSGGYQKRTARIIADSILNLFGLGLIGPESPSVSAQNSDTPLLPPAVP
# Experimental: HDAC assay was performed according to standard Protocols (Fluorgenic HDACs 1-11 assay kit, BPS Bioscience™). […] After 0.5 h, assay developer was added to the samples and the absorbance was read at fluorogenic wavelength. The relative inhibition to HDACs 1, 2, 3, 4, 5, 6, 7, 8, 9, and 11 activities was determined in each sample. […] All of the compounds were dissolved in DMSO. The serial dilution of the compounds was first performed in 100% DMSO with the highest concentration at 1 mM. Each intermediate compound dilution (in 100% DMSO) would then get directly diluted 10× fold into assay buffer for an intermediate dilution of 10% DMSO in HDAC assay buffer and 5 μl of the dilution was added to a 50 μl reaction so that the final concentration of DMSO is 1% in all of the reactions. The enzymatic reactions for the HDAC enzymes were conducted in duplicate at 37° C. for 30 minutes in a 50 μl mixture containing HDAC assay buffer, 5 μg BSA, an HDAC substrate, a HDAC enzyme and a test compound. After enzymatic reactions, 50 μl of 2×HDAC Developer was added to each well for the HDAC enzymes and the plate was incubated at room temperature for an additional 15 minutes. Fluorescence intensity was measured at an excitation of 360 nm and an emission of 460 nm using a Tecan Infinite M1000 microplate reader. HDAC activity assays were performed in duplicate at each concentration. The fluorescent intensity data were analyzed using the computer software, Graphpad Prism. In the absence of the compound, the fluorescent intensity (Ft) in each data set was defined as 100% activity. In the absence of HDAC, the fluorescent intensity (Fb) in each data set was defined as 0% activity. The percent activity in the presence of each compound was calculated according to the following equation: % activity=(F−Fb)/(Ft−Fb), where F=the fluorescent intensity in the presence of the compound. The values of % activity versus a series of compound concentrations were then plotted using non-linear regression analysis of Sigmoidal dose-response curve generated with the equation Y=B+(T−B)/1+10((Log EC50−X)×Hill Slope), where Y=percent activity, B=minimum percent activity, T=maximum percent activity, X=logarithm of compound and Hill Slope=slope factor or Hill coefficient. The IC50 value was determined by the concentration causing a half-maximal percent activity.
# HDAC2 [3] = target: T1, HDAC2 (Homo sapiens (Human), UniProt Q92769); experiment: HDACs 1-11 enzymatic inhibition by BPS Bioscience
# Experimental: (§6) HDAC assay was performed according to standard Protocols (Fluorgenic HDACs 1-11 assay kit, BPS Bioscience™). […] After 0.5 h, assay developer was added to the samples and the absorbance was read at fluorogenic wavelength. The relative inhibition to HDACs 1, 2, 3, 4, 5, 6, 7, 8, 9, and 11 activities was determined in each sample. […] All of the compounds were dissolved in DMSO. The serial dilution of the compounds was first performed in 100% DMSO with the highest concentration at 1 mM. Each intermediate compound dilution (in 100% DMSO) would then get directly diluted 10× fold into assay buffer for an intermediate dilution of 10% DMSO in HDAC assay buffer and 5 μl of the dilution was added to a 50 μl reaction so that the final concentration of DMSO is 1% in all of the reactions. […] Fluorescence intensity was measured at an excitation of 360 nm and an emission of 460 nm using a Tecan Infinite M1000 microplate reader. […] The fluorescent intensity data were analyzed using the computer software, Graphpad Prism. […] The percent activity in the presence of each compound was calculated according to the following equation: % activity=(F−Fb)/(Ft−Fb), where F=the fluorescent intensity in the presence of the compound. […] The IC50 value was determined by the concentration causing a half-maximal percent activity.
# NCI-N87 = experiment: In vitro cytotoxicity MTT assay; type: cell-based; conditions: Homo sapiens, 72 h, IC50 ± SD
# Procedure, shortened: as §3
# SK-BR-3 = experiment: In vitro cytotoxicity MTT assay; type: cell-based; conditions: Homo sapiens, 72 h, IC50 ± SD
# Procedure, shortened: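 Plated 96-well (MDA-MB-231 6×10^3; others 2.4×10^4); treated 72 h; MTT.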
# HDAC1 = HDAC1 (Homo sapiens (Human), UniProt Q13547); experiment: HDACs 1, 2, and 3 enzymatic inhibition (fluorogenic kit, 1 h); type: biochemical; conditions: 37° C.
# Experimental: (§4) HDACs assay was performed according to standard Protocols (Fluorgenic HDACs 1, 2, and 3 assay kit, BPS Bioscience™). […] After 1 h, assay developer was added to the samples and the absorbance was read at fluorogenic wavelength. The relative inhibition to HDACs 1, 2, and 3 activities in each sample was determined.
# HDAC2 [4] = target: T1, HDAC2; experiment: as above; type: biochemical; conditions: 37° C.
# Experimental: as §4
# HDAC3 = HDAC3 (Homo sapiens (Human), UniProt O15379); experiment: as above; type: biochemical; conditions: 37° C.
# Experimental: as §4
# HDAC3/NCOR2 = HDAC3/NCOR2 (Homo sapiens (Human), UniProt O15379); experiment: HDACs 1-11 enzymatic inhibition by BPS Bioscience
# Experimental: as §6
# HDAC7 = HDAC7 (Homo sapiens (Human), UniProt Q8WUI4); experiment: HDACs 1-11 enzymatic inhibition by BPS Bioscience
# Sequence of HDAC7 (Q8WUI4 whole entry): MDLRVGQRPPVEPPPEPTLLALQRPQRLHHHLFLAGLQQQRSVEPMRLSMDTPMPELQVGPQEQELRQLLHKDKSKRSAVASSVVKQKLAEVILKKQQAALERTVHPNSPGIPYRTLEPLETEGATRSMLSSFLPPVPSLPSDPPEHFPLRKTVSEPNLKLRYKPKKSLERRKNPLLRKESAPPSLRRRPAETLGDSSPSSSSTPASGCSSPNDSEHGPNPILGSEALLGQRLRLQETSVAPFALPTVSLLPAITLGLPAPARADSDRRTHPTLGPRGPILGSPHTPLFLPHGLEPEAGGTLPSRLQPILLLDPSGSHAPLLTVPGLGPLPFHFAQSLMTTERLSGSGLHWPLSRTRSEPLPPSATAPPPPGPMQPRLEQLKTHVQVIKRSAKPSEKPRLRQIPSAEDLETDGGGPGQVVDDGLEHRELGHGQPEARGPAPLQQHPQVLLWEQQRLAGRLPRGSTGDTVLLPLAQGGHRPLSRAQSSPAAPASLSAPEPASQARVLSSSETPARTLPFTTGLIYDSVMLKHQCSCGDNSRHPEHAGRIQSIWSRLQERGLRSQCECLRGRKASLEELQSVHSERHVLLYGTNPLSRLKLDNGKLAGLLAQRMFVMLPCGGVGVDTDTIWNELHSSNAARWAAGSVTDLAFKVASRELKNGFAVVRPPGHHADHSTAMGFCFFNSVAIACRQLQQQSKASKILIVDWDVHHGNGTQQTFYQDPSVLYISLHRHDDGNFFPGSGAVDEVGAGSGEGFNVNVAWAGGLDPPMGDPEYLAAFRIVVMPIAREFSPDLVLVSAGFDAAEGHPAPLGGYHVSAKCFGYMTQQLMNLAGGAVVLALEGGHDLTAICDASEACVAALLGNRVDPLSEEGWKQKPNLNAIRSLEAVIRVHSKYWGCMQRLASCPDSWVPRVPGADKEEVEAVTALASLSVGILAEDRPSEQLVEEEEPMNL
# Experimental: as §5
# Sequence of HDAC6 (Q9UBN7 whole entry): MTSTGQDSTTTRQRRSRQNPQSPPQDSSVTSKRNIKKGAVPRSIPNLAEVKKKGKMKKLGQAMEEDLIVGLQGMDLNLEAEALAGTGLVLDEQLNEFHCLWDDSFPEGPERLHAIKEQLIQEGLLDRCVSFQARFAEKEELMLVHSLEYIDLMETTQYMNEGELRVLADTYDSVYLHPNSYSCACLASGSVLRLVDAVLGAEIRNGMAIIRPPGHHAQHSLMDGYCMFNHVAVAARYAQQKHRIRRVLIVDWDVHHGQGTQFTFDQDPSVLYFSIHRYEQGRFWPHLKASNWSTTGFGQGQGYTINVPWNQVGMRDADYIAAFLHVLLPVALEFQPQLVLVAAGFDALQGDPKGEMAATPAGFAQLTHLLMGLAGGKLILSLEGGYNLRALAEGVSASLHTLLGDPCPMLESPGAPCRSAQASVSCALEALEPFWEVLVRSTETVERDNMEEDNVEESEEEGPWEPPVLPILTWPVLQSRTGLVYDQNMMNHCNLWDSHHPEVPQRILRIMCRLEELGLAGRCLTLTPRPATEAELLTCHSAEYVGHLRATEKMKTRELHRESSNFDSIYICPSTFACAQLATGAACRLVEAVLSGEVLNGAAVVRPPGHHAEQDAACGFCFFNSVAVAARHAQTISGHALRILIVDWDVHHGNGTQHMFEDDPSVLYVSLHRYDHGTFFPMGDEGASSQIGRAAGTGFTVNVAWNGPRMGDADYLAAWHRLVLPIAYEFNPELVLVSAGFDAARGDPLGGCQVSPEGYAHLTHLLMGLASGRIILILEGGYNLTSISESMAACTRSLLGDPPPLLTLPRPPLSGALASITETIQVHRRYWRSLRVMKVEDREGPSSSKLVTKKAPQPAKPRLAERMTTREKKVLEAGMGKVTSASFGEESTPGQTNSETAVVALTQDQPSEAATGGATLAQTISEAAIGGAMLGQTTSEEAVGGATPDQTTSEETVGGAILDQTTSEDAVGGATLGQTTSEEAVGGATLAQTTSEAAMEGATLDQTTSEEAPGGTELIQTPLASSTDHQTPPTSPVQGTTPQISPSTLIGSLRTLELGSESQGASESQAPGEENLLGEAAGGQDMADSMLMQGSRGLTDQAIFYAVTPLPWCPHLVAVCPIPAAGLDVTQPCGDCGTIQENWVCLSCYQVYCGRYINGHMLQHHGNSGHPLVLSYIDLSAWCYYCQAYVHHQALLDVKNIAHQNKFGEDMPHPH
# Sequence of HDAC4 (P56524 whole entry): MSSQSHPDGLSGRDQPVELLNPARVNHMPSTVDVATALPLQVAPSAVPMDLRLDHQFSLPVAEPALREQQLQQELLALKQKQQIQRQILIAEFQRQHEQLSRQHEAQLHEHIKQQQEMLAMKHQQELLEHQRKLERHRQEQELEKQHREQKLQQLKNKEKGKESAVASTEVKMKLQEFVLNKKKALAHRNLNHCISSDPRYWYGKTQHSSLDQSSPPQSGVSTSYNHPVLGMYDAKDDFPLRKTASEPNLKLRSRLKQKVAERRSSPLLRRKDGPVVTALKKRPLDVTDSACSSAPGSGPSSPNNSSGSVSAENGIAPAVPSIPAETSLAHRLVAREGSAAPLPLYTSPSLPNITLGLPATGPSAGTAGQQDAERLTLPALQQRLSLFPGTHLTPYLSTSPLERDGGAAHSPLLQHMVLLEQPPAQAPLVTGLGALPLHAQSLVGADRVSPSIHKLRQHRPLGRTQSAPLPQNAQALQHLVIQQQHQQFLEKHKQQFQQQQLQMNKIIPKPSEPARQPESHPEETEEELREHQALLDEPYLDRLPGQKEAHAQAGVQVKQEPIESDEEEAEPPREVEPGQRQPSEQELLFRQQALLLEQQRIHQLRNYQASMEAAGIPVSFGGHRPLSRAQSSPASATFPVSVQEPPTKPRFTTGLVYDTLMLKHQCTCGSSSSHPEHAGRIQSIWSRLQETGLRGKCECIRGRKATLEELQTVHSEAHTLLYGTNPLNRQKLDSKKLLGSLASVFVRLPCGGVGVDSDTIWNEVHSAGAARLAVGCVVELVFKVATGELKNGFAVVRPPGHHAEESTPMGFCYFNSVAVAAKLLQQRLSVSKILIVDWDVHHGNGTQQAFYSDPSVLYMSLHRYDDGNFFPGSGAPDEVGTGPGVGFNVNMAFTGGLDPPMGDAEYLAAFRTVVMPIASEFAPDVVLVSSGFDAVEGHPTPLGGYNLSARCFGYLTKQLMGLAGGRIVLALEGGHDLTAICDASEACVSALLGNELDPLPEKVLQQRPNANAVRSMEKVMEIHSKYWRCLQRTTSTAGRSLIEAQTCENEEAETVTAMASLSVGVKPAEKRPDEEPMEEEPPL
compound,measurement,setting,value
"Cc1ccc(/C=C/CC(=O)Nc2ccc(C(=O)Nc3ccc(F)cc3N)nc2)cn1 [GNTbm-02, 5-((E)-4-(6-methylpyridin-3-yl)but-3-enamido)-N-(2-amino-4-fluorophenyl)pyridine-2-carboxamide]",IC50,HDAC6,> 10 µM
same,HDAC6 Inhibition at 10 μM,HDAC6; 10 μM,not inhibited; also recorded: No Inhibition at 10 μM
same,IC50,HDAC4,> 10 µM
same,HDAC4 Inhibition at 10 μM,HDAC4; 10 μM,not inhibited; also recorded: No Inhibition at 10 μM
same,"Histone H3 acetylation, time course",[1],potently induced histone H3 acetylation level in SW48 cells after 6 h treatment
same,"Histone H3 acetylation, time course",[2]; 2-72 h,potently induced histone H3 acetylation in MDA-MB-231 cell after 6 h treatment
same,Level of histone H3 acetylation,[2]; 24 h,significantly increased the level of histone H3 acetylation
same,IC50,HDAC8,> 10 µM
same,HDAC8 Inhibition at 10 μM,HDAC8; 10 μM,not inhibited; also recorded: No Inhibition at 10 μM
same,IC50,HDAC9,> 10 µM
same,HDAC9 Inhibition at 10 μM,HDAC9; 10 μM,not inhibited; also recorded: No Inhibition at 10 μM
same,Inhibition of cell proliferation,SW48 cells,inhibitory effect was more obvious for SW48 cells
same,Inhibition of cell proliferation,M10 cells,significantly inhibited cell proliferation
same,Inhibition of cell proliferation,MDA-MB-231 cells,significantly inhibiting cell proliferation
same,IC50,HDAC5,> 10 µM
same,HDAC5 Inhibition at 10 μM,HDAC5; 10 μM,not inhibited; also recorded: No Inhibition at 10 μM
same,IC50,MDA-MB-231,13.5 ± 1.78 µM
same,IC50,M10,4.31 ± 0.16 µM
same,IC50,SW48,2510 ± 110 nM
same,IC50,MDA-MB-453,1690 ± 8 nM
same,IC50,HDAC11,> 10 µM
same,HDAC11 Inhibition at 10 μM,HDAC11; 10 μM,not inhibited; also recorded: No Inhibition at 10 μM
same,IC50,HDAC2 [3],910 nM
same,IC50,NCI-N87,4.01 ± 0.49 µM
same,IC50,SK-BR-3,2000 ± 15 nM
same,IC50,HDAC1,520 ± 20 nM
same,IC50,HDAC2 [4],550 ± 60 nM
same,IC50,HDAC3,670 ± 5 nM
same,IC50,HDAC3/NCOR2,730 nM
same,IC50,HDAC7,> 10 µM
same,HDAC7 Inhibition at 10 μM,HDAC7; 10 μM,not inhibited; also recorded: No Inhibition at 10 μM

# Reference: patent US11672788B2, “Histone deacetylase inhibitors for immunomodulation in tumor microenvironment” (GREAT NOVEL THERAPEUTICS BIOTECH & MEDICALS CORPORATION, priority 2020, dated 2023)
